Measured values taken from PubChem BioAssay AID651672 (The Scripps Research Institute Molecular Screening Center, 2012).
The source made the active and inactive calls. No rule for the calls is given here.

Molecular target: Perilipin-1 (Homo sapiens) (UniProt O60240)
Experiment: inhibitors of ABHD5-PLIN1 binding, dose response, counter-screen for ABHD5-PLIN5 interaction inhibitor project, biochemical, luminescence (AID 651672);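 also: split Gaussia luciferase complementation between ABHD5 and PLIN1 fusion fragments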

Chain of Perilipin-1 (Homo sapiens) (O60240 whole entry, looked up, the tested form may be a part): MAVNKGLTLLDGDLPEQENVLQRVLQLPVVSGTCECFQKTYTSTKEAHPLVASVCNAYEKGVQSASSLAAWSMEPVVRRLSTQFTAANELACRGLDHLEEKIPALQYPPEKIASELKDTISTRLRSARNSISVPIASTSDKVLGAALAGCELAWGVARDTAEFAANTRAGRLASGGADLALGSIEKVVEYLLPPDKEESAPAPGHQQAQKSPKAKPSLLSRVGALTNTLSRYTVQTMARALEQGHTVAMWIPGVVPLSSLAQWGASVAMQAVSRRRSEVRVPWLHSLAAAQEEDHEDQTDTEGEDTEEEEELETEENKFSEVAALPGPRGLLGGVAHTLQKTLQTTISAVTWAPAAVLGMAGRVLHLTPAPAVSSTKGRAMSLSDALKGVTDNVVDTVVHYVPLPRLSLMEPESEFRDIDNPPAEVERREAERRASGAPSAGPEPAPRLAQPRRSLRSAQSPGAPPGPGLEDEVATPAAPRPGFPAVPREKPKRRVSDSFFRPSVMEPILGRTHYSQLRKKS

| SMILES | IC50 |
| --- | --- |
| CSc1nnc(NC(=O)c2nc(S(=O)(=O)Cc3ccccc3F)ncc2Cl)s1 | 2.16 µM |
| O=C(NCc1ccccc1)C(c1ccccc1F)n1c(=O)c(-c2ccco2)nc2ccccc21 (configuration not stated) | 2.31 µM |
| CC(C)(C)NC(=O)C(c1ccc(C#N)cc1)n1c(=O)c(-c2ccco2)nc2ccccc21 (configuration not stated) | 1.41 µM |
| CC(=O)C1=C(c2cccc([N+](=O)[O-])c2)N(C(C)=O)n2c(C)nnc2S1 | 2.47 µM |
| CCOC(=O)/C(=C\c1ccc(Cl)cc1)c1nc2sc(C)c(C)c2c(=O)[nH]1 | 0.525 µM |
| COc1ccc(C(C(=O)NC(C)(C)C)n2c(=O)c(-c3ccco3)nc3ccccc32)cc1 (configuration not stated) | 1.82 µM |
| CC(C)(C)NC(=O)C(c1ccccc1)n1c(=O)c(-c2ccco2)nc2ccccc21 (configuration not stated) | 2.04 µM |
| CCOc1cc(/C=C2\CCC/C(=C\c3cc(Cl)c(O)c(OCC)c3)C2=O)cc(Cl)c1O | 3.88 µM |
| COc1ccccc1/C=C/C(=O)c1ccccc1 | 6.05 µM |
| O=C(Nc1ccc2c(c1)OCCO2)C(c1ccnc2ccccc12)n1c(=O)c(-c2ccco2)nc2ccccc21 (configuration not stated) | inactive |
| O=C(Cn1c(=O)n(Cc2ccco2)c(=O)c2c3c(sc21)CCCC3)Nc1ccccc1 | 8.69 µM |
| COc1cccc2sc(N(CCCN(C)C)C(=O)COc3ccc(Cl)cc3)nc12 | inactive |
| Oc1c(C(c2ccccc2)N2CCCCC2)ccc2ccccc12 (configuration not stated) | 1.01 µM |
| Cc1cc(C)c(C(CC(=O)c2cccs2)C(C#N)C#N)c(C)c1 (configuration not stated) | 6.74 µM |
| Cc1cccc(C)c1NC(=O)C(c1ccncc1)n1c(=O)c(-c2ccco2)nc2ccccc21 (configuration not stated) | 7.15 µM |
| O=CC1=C(c2ccccc2)Oc2ccccc2O1 | 2.57 µM |

| SMILES | IC50 |
| --- | --- |
| C=CC(=O)N1c2ccccc2Sc2ccc(NC(=O)OCC)cc21 | 5.01 µM |
| CCOc1cc(N)c(Cl)cc1C(=O)NCC1CN(Cc2ccc(F)cc2)CCO1 (configuration not stated) | 1.97 µM |
| O=C(Nc1ccc2c(c1)OCCO2)C(c1ccccc1F)n1c(=O)c(-c2ccco2)nc2ccccc21 (configuration not stated) | 9.21 µM |
| Cc1cccc(C)c1OCc1cn(CC(=O)c2ccc(O)cc2)nn1 | 2.98 µM |
| C#CCN(C[C@@H]1[C@@H](OC(=O)NC2CCCC2)[C@@H](OC(=O)NC2CCCC2)Cn2c(=O)ccc(=O)n21)S(=O)(=O)c1ccc(C)cc1 | 4.75 µM |
| CCCCCCC=C1CCC(CN2CCCC2)C1=O (configuration not stated) | 1.37 µM |
| CC1(C)C2CCC(CN=C(N)CSS(=O)(=O)O)C1C2 (configuration not stated) | 4.29 µM |
| O=C(C[n+]1cccc(CNC(=O)c2ccc(OC(F)F)cc2)c1)Nc1cccc(C(F)(F)F)c1 | inactive |
| CC(=O)Oc1c(Cl)c(N2CCOCC2)c(OC(C)=O)c2ccccc12 | 4.44 µM |
| Oc1ccc2sc(-c3ccccc3O)c(-c3ccc(OCCN4CCCCC4)cc3)c2c1 | 7.15 µM |
| COc1ccc(C(C(=O)Nc2ccc3c(c2)OCCO3)n2c(=O)c(-c3ccco3)nc3ccccc32)cc1 (configuration not stated) | 5.43 µM |
| Cc1ccc(CS(=O)(=O)c2ncc(Cl)c(C(=O)Nc3nnc(C(C)C)s3)n2)cc1 | 1.71 µM |
| O=C1NC(=O)N(Cc2ccccc2)C(=O)/C1=C\C=C\c1ccco1 | 1.82 µM |
| COc1cc(C)c2sc3ccccc3c(=O)c2c1NCCN(C)C | 6.3 µM |
| O=C(NC1CCCCC1)C(c1cccc2ccccc12)n1c(=O)c(-c2ccco2)nc2ccccc21 (configuration not stated) | 1.22 µM |
| COc1cc(C(C)=O)ccc1OCc1cn(CC(=O)c2ccc(O)cc2)nn1 | 4.59 µM |
